Source: patent EP4120837B1, “INHIBITORS OF CYTOKININ OXIDASE DERIVED FROM 2-(3-PHENYLUREIDO)BENZAMIDE, USE THEREOF AND PREPARATIONS CONTAINING THESE DERIVATIVES” (Univerzita Palackého v Olomouci, priority 2020, dated 2021)
Where “and” joins values, the source holds several entries; their conditions need not be identical. Equal values may be shown once. Read-outs that look alike come from different tables or passages of the source.

Key:
ZmCKX1 = target: T1, ZmCKX1 (Zea mays, UniProt Q9T0N8); test: ZmCKX1 inhibition, PMS/MTT assay; assay type: biochemical, maize
T1 construct: made in house; host or cells: Yarrowia lipolytica
Experimental: The IC50 (concentration of a substance that causes 50% inhibition of the enzyme activity) was measured by PMS/MTT assay [phenazine methosulphate/3-(4,5-dimethylthiazol-2-yl)-2,5-diphenyltetrazolium bromide]. The assay was performed in 96-well microtiter plates. Each well contained a reaction mixture with a final concentration of: 0.1 M KH2PO4, pH 7.4, 1 mM MTT, 0.2 mM PMS, tested substance in a concentration range of 0.1 nM - 1 µM and 10 µM N^6-isopentenyladenine (iP) as a substrate. To this reaction mixture 100 µL of medium containing the active enzyme ZmCKX1 was added. The enzyme was produced by the yeast Yarrowia lipolytica and isolated according to the protocol (Kopečný D. et al., 2005, […] 87:1011-1022). The plates were incubated for 30 min at 37 °C and the enzymatic reaction was stopped by the addition of 25 µL of 35% acetic acid. Then, the absorbance at 578 nm was measured on a spectrophotometer, and the absorbance of the sample without the substrate was substracted as a reference value. The IC50 value was determined from the concentration-dependent curves in GraphPad Prism software. The values shown in Table 1 are the average of at least two measurements each performed in three repetitions. […] The substance 3,5DCl-Ph-U is 1-(3,5-dichlorophenyl)-3-phenylurea, which we have been prepared to compare its inhibitory activity with the compounds presented in the present invention. Addition of the amide group to the unsubstituted phenyl ring of this substance gives the compound 2AD-3,5DC, which has 42-fold better inhibitory activity with the ZmCKX1 enzyme than 3,5DCl-Ph-U. F-INCYDE ((2-fluoro-9H-purin-6-yl)-(3-methoxyphenyl)amine), CPPU (1-(2-chloropyridin-4-yl)-3-phenylurea), and DCPPU (1-(2,6-dichloropyridin-4-yl)-3-phenylurea) are substances known in the prior art.

Arabidopsis thaliana [1] = test: Foliar application, seed yield of Arabidopsis under optimal conditions; assay type: in vivo
Experimental: In our experiment, young Arabidopsis thaliana plants were grown in small pots in soil and they were sprayed with a 0.01 µM compound 24 (aq solution) in phase of 4 true leaves (about 14-20 days after sowing). Control plants were sprayed with an aqueous solution of DMSO (c = 0.01% (v/v)) and silwet (c = 0.001% (v/v)). Both treated (n = 25) and control plants (n = 25) were further grown under optimal conditions until their natural death. Subsequently, seeds from all plants were harvested and the yield was evaluated (Table 2). […] This means an increase in total seed yield of 21 %.
This means an increase in total seed yield of 17 %. Table 2. Foliar application of 24 increases seed yield of Arabidopsis thaliana

winter rapeseed = test: Field trial, seed yield of winter rapeseed; assay type: in vivo; settings: 1 µM foliar application; for Yield (%): 300 L per hectare, control = 100 %; for weight of one thousand seeds: control 5.38 g
Experimental: In 2018, the effect of foliar application of substance 24 (concentration 1 µM in a volume of 300 L per hectare) on the yield of winter rapeseed was investigated in field conditions. The field trials were again performed according to Good Agricultural Practice. Substance 24 was applied to plants in two different growth phases - BBCH 30 and BBCH 33-35. […] The weight of one thousand seeds in the treated plants was 5.6 g (BBCH 30) and 5.8 g (BBCH 33-35). This phenomenon also contributed to the increase in total seed yield. Table 5. Application of substance 24 increases the seed yield of winter rapeseed in field conditions

Arabidopsis thaliana [2] = test: Foliar application, life span and seed yield of Arabidopsis under drought stress; assay type: in vivo; settings: 0.01 µM foliar spray, reduced watering
Experimental: Young Arabidopsis thaliana plants grown in small pots in soil were sprayed with a 0.01 µM aqueous solution of substance 24 in phase of four true leaves (within 14-20 days after sowing). Control plants were sprayed with an aqueous solution of DMSO (c = 0.01% (v/v)) and silwet (c = 0.001% (v/v)). Control plants were further divided into watered plants and those with reduced watering (drought stressed). […] All plants were grown until the stage of their natural death. Control watered plants lived for an average of 85 days before dying spontaneously. Their seed yield in average was 141 (± 22) mg. Control plants with reduced watering lived only 61 days on average and the average yield was 95 (± 14) mg. Plants treated with substance 24 and with reduced watering lived for an average of 75 days and their average seed yield was 117 (± 16) mg. […] Table 3. Foliar application with compound 24 reduces Arabidopsis thaliana seed yield losses

wheat = test: Field trial, seed yield of wheat; assay type: in vivo; settings: for Yield (%): control = 100 %
Experimental: Example 19. The application of compound 24 increases the seed yield of wheat in field conditions In 2017, the effect of the application of substance 24 on wheat yield in field conditions was investigated. The substance was again applied either to wheat seeds before sowing (= seed dressing with substance 24 at a concentration of 50 µM) or to leaves (= spraying with substance 24 at a concentration of 5 µM) in two different growth phases - BBCH 25 and BBCH 51. All field experiments were performed according to Good Agricultural Practice. […] Table 6. Application of compound 24 increases seed yield of wheat in field conditions

barley = test: Field trial, seed yield of barley; assay type: in vivo; settings: for Yield (%): control = 100 %
Experimental: The effect of compound 24 on seed yield of barley and its phenotype was investigated in a field trials. All field experiments were performed according to Good agricultural practices, ie. six areas of 10 m^2 were used for one variant. Furthermore, the crop was not treated with any other growth regulator (substance 24 only) or fungicide. Compound 24 was applied to seeds at a concentration of 10 µM before sowing. In 2016 barley seeds treated by this way were grown in the field and the yield of these plants was compared with the untreated control (Table 4).
In 2017, compound 24 was applied to barley leaves at a concentration of 5 µM (in a volume of 200 L per hectare) in two different growth phases - BBCH 21-23 and BBCH 51. […] Table 4. Application of substance 24 increases the seed yield of barley in field conditions

[3] = 10 µM iP as substrate, pH 7.4, 30 min at 37 °C, average of at least two measurements, read-out: IC50 (µM) ZmCKX1
[4] = 10 µM seed application before sowing, 2016

T1 sequence (Q9T0N8 19-534): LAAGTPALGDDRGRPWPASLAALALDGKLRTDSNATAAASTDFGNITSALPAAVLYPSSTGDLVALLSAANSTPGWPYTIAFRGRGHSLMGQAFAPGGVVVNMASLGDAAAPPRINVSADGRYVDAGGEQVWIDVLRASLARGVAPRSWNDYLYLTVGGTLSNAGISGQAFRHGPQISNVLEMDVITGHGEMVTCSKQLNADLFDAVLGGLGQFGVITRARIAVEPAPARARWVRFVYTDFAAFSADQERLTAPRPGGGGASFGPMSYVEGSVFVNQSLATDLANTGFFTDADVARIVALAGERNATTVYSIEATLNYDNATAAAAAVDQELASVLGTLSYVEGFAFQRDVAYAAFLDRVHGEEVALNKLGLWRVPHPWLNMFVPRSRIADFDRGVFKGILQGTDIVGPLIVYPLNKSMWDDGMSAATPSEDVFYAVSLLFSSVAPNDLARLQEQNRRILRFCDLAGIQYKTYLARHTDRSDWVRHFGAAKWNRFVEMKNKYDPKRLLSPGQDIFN

With `COc1ccc(C(N)=O)c(NC(=O)Nc2cc(Cl)cc(Cl)c2)c1` [compound 24, 2-[3-(3,5-Dichlorophenyl)ureido]-4-methoxybenzamide] the IC50 (ZmCKX1; [3]) was 0.001 µM, the “Yield (mg), total seed yield per plant” value (Arabidopsis thaliana [1]; 0.01 µM aq solution sprayed in phase of 4 true leaves, n = 25, experiment and its repeat) was 148 (± 17) mg and 135 (± 13) mg and 148 ± 17 mg and 135 ± 13 mg and the seeds per silique (Arabidopsis thaliana [1]; 0.01 µM foliar spray, average) was 50 (± 5) and 52 (± 7). The “Yield (%)” value (Arabidopsis thaliana [1]; 0.01 µM foliar spray, control = 100 %) was 121% and 117%, the “Yield (%)” value (winter rapeseed; BBCH 30, 2018) was 106.2% and the “Yield (%)” value (winter rapeseed; BBCH 33-35, 2018) was 108.8%. For the same molecule, the “weight of one thousand seeds” value (winter rapeseed; BBCH 30) was 5.6 g, the “weight of one thousand seeds” value (winter rapeseed; BBCH 33-35) was 5.8 g and the “Yield (mg), average seed yield” value (Arabidopsis thaliana [2]) was 117 ± 16 mg. The “life span (lived for an average of)” value (Arabidopsis thaliana [2]) was 75 days, the “Yield (mg), average seed yield” value (Arabidopsis thaliana [2]; listed as substance 24) was 117 (± 16) mg and the “Yield (%)” value (Arabidopsis thaliana [2]; watered control = 100 %) was 83%. For the same molecule, the “Yield (%)” value (wheat; 5 µM foliar application, BBCH 25, 2017) was 105.9%, the “Yield (%)” value (wheat; 5 µM foliar application, BBCH 51, 2017) was 105.0% and the “Yield (%)” value (wheat; 50 µM seed dressing before sowing, 2017) was 104.0%. For the same molecule, the “tillers, more than the control plants” value (wheat; treated plants, mode of application not specified, 2017) was “about 7%”, the “Yield (%)” value (barley; 5 µM foliar application, 200 L per hectare, BBCH 21-23, 2017) was 106.3% and the “Yield (%)” value (barley; 5 µM foliar application, 200 L per hectare, BBCH 51, 2017) was 106.8%. The “number of tillers, more than the control plants” value (barley; [4]) was 14% and the “Yield (%)” value (barley; [4]) was 105.3%.
`CCNC(=O)c1ccc(OC(F)(F)F)cc1NC(=O)Nc1cc(F)cc(Cl)c1` [compound 38, 2-[3-(3-chloro-5-fluorophenyl)ureido]-4-trifluoromethoxy-N-ethylbenzamide] was tested, and the IC50 (ZmCKX1; [3]) was 0.001 µM.
Work on `CNC(=O)c1ccc(F)cc1NC(=O)Nc1cc(Cl)cc(Cl)c1` [compound 30, 2-[3-(3,5-dichlorophenyl)ureido]-4-fluoro-N-methylbenzamide] yielded an IC50 (ZmCKX1; [3]) of 0.021 µM.
`NC(=O)c1ccccc1NC(=O)Nc1cc(F)cc(F)c1` [compound 5, 2-[3-(3,5-difluorophenyl)ureido]benzamide] showed an IC50 (ZmCKX1; [3]) of 0.16 µM.
Work on `COc1ccc(C(N)=O)c(NC(=O)Nc2cccc(F)c2)c1` [compound 21, 2-[3-(3-fluorophenyl)ureido]-4-methoxybenzamide] yielded an IC50 (ZmCKX1; [3]) of 0.058 µM.
For `NC(=O)c1ccccc1NC(=O)Nc1cccc(Br)c1` [compound 2, 2-[3-(3-bromophenyl)ureido]benzamide], the IC50 (ZmCKX1) was 0.34 µM.
For `NCCNC(=O)c1ccc(Br)cc1NC(=O)Nc1cc(Cl)cc(Cl)c1` [compound 55, N-(2-Aminoethyl)-4-bromo-2-[3-(3,5-dichlorophenyl)ureido]benzamide], the IC50 (ZmCKX1) was 0.01 µM.
With `CNC(=O)c1ccc(Cl)cc1NC(=O)Nc1cc(Cl)cc(Cl)c1` [compound 31, 4-chloro-2-[3-(3,5-dichlorophenyl)ureido]-N-methylbenzamide] the IC50 (ZmCKX1; [3]) was 0.014 µM.
For `O=C(Nc1ccccc1)Nc1cc(Cl)cc(Cl)c1` [3,5DCl-Ph-U, 1-(3,5-dichlorophenyl)-3-phenylurea, reference compound], the IC50 (ZmCKX1; [3]) was 0.84 µM.
Work on `COc1ccc(C(=O)NCCN)c(NC(=O)Nc2cc(Cl)cc(Cl)c2)c1` [compound 56, 2-[3-(3,5-dichlorophenyl)ureido]-4-methoxy-N-(2-amino-ethyl)benzamide] yielded an IC50 (ZmCKX1; [3]) of 0.013 µM.
`NC(=O)c1ccccc1NC(=O)Nc1cccc(OC(F)(F)F)c1` [compound 4] showed an IC50 (ZmCKX1; [3]) of 0.21 µM.
`Cc1cc(Cl)cc(NC(=O)Nc2ccccc2C(N)=O)c1` [compound 10, 2-[3-(3-chloro-5-methylphenyl)ureido]benzamide] gave an IC50 (ZmCKX1; [3]) of 0.07 µM.
With `CCNC(=O)c1ccc(OC)cc1NC(=O)Nc1cccc(Cl)c1` [compound 36, 2-[3-(3-chlorophenyl)ureido]-4-methoxy-N-ethylbenzamide] the IC50 (ZmCKX1; [3]) was 0.021 µM.
Molecule `CCNC(=O)c1ccc(OC)cc1NC(=O)Nc1cc(Cl)cc(Cl)c1` [compound 37, 2-[3-(3,5-dichlorophenyl)ureido]-4-methoxy-N-ethylbenzamide] has an IC50 (ZmCKX1; [3]) of 0.002 µM.
For `NC(=O)c1ccc(Br)cc1NC(=O)Nc1cc(Cl)cc(Cl)c1` [compound 19, 4-Bromo-2-[3-(3,5-dichlorophenyl)ureido]benzamide], the IC50 (ZmCKX1; read-out: IC50 (µM) ZmCKX1, 10 µM iP as substrate, pH 7.4, 30 min at 37 °C, average of at least two measurements) was 0.001 µM.
Molecule `NC(=O)c1ccccc1NC(=O)Nc1cc(Cl)cc(Br)c1` [compound 9, 2-[3-(3-bromo-5-chlorophenyl)ureido]benzamide] has an IC50 (ZmCKX1) of 0.04 µM.
`COc1ccc(C(=O)NN)c(NC(=O)Nc2cc(Cl)cc(Cl)c2)c1` [compound 46, 1-(3,5-dichlorophenyl)-3-(2-hydrazinocarbonyl-5-methoxyphenyl)-urea] showed an IC50 (ZmCKX1; [3]) of 0.018 µM.
Work on `CCNC(=O)c1ccc(Br)cc1NC(=O)Nc1cc(Cl)cc(Cl)c1` [compound 35, 4-Bromo-2-[3-(3,5-dichlorophenyl)ureido]-N-ethylbenzamide] yielded an IC50 (ZmCKX1) of 0.003 µM.
`O=C(Nc1cc(Cl)cc(Cl)c1)Nc1ccccc1C(=O)NCCO` [compound 47, 2-[3-(3,5-dichlorophenyl)ureido]-N-(2-hydroxy-ethyl)benzamide] gave an IC50 (ZmCKX1; [3]) of 0.022 µM.
In the case of `O=C(Nc1ccccc1)Nc1ccnc(Cl)c1` [CPPU, 1-(2-chloro-4-pyridyl)-3-phenylurea, reference compound], the IC50 (ZmCKX1) is reported as 18 µM.
Work on `COc1ccc(C(=O)NCCO)c(NC(=O)Nc2cc(Cl)cc(Cl)c2)c1` [compound 50, 2-[3-(3,5-dichlorophenyl)ureido]-4-methoxy-N-(2-hydroxyethyl)benzamide] yielded an IC50 (ZmCKX1; [3]) of 0.003 µM.
Work on `NC(=O)c1ccc(Cl)cc1NC(=O)Nc1cccc(Cl)c1` [compound 15, 4-chloro-2-[3-(3-chlorophenyl)ureido]benzamide] yielded an IC50 (ZmCKX1; [3]) of 0.035 µM.
In the case of `NC(=O)c1ccc(Cl)cc1NC(=O)Nc1cc(Cl)cc(Cl)c1` [compound 16, 4-Chloro-2-[3-(3,5-dichlorophenyl)ureido]benzamide], the IC50 (ZmCKX1; [3]) is reported as 0.002 µM.
